Here are results for 51 compounds from PubChem BioAssay AID1996.

Values after ≈ are worked out from the molar mass of the structure shown.

The conditions of the data set: buffer; pH 7.4; 200.0 µM.
In general, solubility (kinetic) refers to the concentration staying in solution when a stock, usually in DMSO, is diluted into the medium. In turn, `O=C(NCCCn1ccnc1)c1cc2c(s1)CCCC2` had a kinetic solubility greater than 43.4 µg/mL.
The compound `COCc1cc(C)nc(SCC(=O)Oc2ccccc2)c1C#N` had a kinetic solubility of 29.1 µg/mL (≈ 88.6 µM).
Next, `Nc1c(C(=O)OCC(=O)Nc2cccc([N+](=O)[O-])c2)[nH]c(=O)[nH]c1=O`: 51.5 µg/mL (≈ 147 µM); `COc1cc(Cl)c(C)cc1NC(=O)CN1C(=O)C2CC=CCC2C1=O` (stereo unspecified): greater than 54.4 µg/mL.
Next, `CC1CCC(N2CCNCC2)CC1.Cl` (stereo unspecified): greater than 32.8 µg/mL.
Next, `O=C(NCCCn1ccnc1)C(=O)Nc1ccccc1`: 39.5 µg/mL (≈ 145 µM); `Br.Cc1ccc(C2Cc3cc(O)c(O)cc3CN2)cc1` (stereo unspecified): 44.3 µg/mL; `FC(F)(F)c1ccccc1-n1c(-c2cnccn2)n[nH]c1=S`: greater than 48.5 µg/mL.
For the compound `COc1ccc(S(=O)(=O)NCc2ccccn2)c(C)c1C`, the kinetic solubility is 32.8 µg/mL (≈ 107 µM).
Next, `O=C(O)c1cc([N+](=O)[O-])ccc1NCc1ccccc1Cl`: 45 µg/mL (≈ 147 µM); `O=C(COc1ccccc1Cl)N1CCc2ccccc2C1`: 38.7 µg/mL (≈ 128 µM).
Next, `NS(=O)(=O)c1cccc(NS(=O)(=O)c2cccc(C(F)(F)F)c2)c1`: greater than 57.1 µg/mL.
Turning to `Cc1ccc(C(=O)N2C(=O)c3cccc(N)c3C2=O)o1`, the kinetic solubility was found to be 3.9 µg/mL (≈ 14.4 µM).
Next, `CC(C)(C)C(=O)CSc1ncccn1`: 24.3 µg/mL (≈ 116 µM).
Next, `Br.COc1cccc(C(=O)CSc2nccn2C)c1`: greater than 51.5 µg/mL; `CN(C)C(CNC(=O)CCOc1ccccc1)c1ccco1` (stereo unspecified): 43 µg/mL (≈ 142 µM); `CCN(Cc1ccccc1)C(=O)CSc1nncn1C`: greater than 43.6 µg/mL.
Next, `Cc1snc(SCc2ccc(Cl)cc2)c1C#N`: less than 0.3 µg/mL.
Consider `CCCOC(=O)C1=C(C)N(C)C(=O)NC1c1cc2c(cc1[N+](=O)[O-])OCO2` (stereo unspecified), for which the kinetic solubility was 49.4 µg/mL (≈ 131 µM).
Next, `Cc1c(C)n(C)c2ccc(C(=O)NCCN3CCOCC3)cc12`: greater than 47.3 µg/mL.
Next, `COc1ccc(C(=O)O)cc1S(=O)(=O)N1CCSCC1`: greater than 47.6 µg/mL.
Next, `COc1ccc(NC(=O)CS(=O)c2ccc(F)cc2)cc1` (stereo unspecified): greater than 46.1 µg/mL; `Cc1cccc(C)c1OCC(=O)Nc1ccccc1C(F)(F)F`: 1.6 µg/mL (≈ 4.95 µM); `O=C(Nc1cccnc1)C12CC3CC(CC(C3)C1)C2`: greater than 38.5 µg/mL.
In turn, `O=C(Nc1ccc(C(=O)N2CCCC2)cc1)c1ccccc1[N+](=O)[O-]` showed a kinetic solubility of 48.2 µg/mL (≈ 142 µM).
Next, `O=C(COC(=O)COc1ccc(Cl)cc1)NC1CCCCCC1`: 8.1 µg/mL (≈ 23.8 µM).
With `Cc1ccc(/C=C/C(=O)O)cc1S(=O)(=O)N1CCCc2ccccc21`, the kinetic solubility was greater than 53.6 µg/mL.
Regarding `CCOC(=O)c1ccc(S(=O)(=O)N2CCN(C(C)=O)CC2)cc1`, the solubility (kinetic) was greater than 51.1 µg/mL.
Next, `CCCNc1nc(Cl)nc(NCc2cccnc2)n1`: 33.5 µg/mL (≈ 120 µM); `Cc1cccc(-n2c(C)nc3ccccc3c2=O)c1C`: greater than 39.6 µg/mL.
Next, `O=C(c1cccc([N+](=O)[O-])c1)N1CCCC(C(=O)N2CCCCC2)C1` (stereo unspecified): greater than 51.8 µg/mL.
Next, `Cn1cccc1C(=O)OCC(=O)c1ccc(Br)s1`: 7.9 µg/mL (≈ 24.1 µM); `Cn1cc(C(=O)Nc2ccccn2)c(=O)c2ccccc21`: 1.3 µg/mL (≈ 4.65 µM); `CC(NC(=O)CCC(=O)N1CCCCCC1)c1ccccc1` (stereo unspecified): greater than 45.4 µg/mL.
As for `O=C(O)C1CCC1C(=O)Nc1nc(-c2ccc(Cl)s2)cs1` (stereo unspecified), the solubility (kinetic) was greater than 51.4 µg/mL.
Next, `CCCC(C(=O)O)n1c(O)c(C=C2N=c3ccccc3=N2)sc1=S` (stereo unspecified): greater than 54.2 µg/mL; `CCOc1ccc(S(=O)(=O)N2CCN(C(=O)C3CC3C)CC2)cc1` (stereo unspecified): 51.7 µg/mL (≈ 147 µM); `Nc1cc(N)nc(SCC(=O)NCc2ccc3c(c2)OCO3)n1`: greater than 50 µg/mL.
Regarding `Cc1ccc(NC(=S)NC2CCSc3ccccc32)cc1` (stereo unspecified), the solubility (kinetic) came to 2.7 µg/mL (≈ 8.59 µM).
`COc1ccc(CCNC(=O)c2cc3c(C)nccc3[nH]c2=O)cc1OC` showed a kinetic solubility of 17.1 µg/mL (≈ 46.5 µM).
Next, `O=C(CCCn1cc([N+](=O)[O-])cn1)N1CCCCC1`: greater than 39.9 µg/mL; `CSC1=NCCN1C(=O)Cc1cccc2ccccc12`: 20.4 µg/mL (≈ 71.7 µM).
In the case of `CCOC(=O)Cc1c(C)nc(Cc2ccc(OC(C)C)cc2)[nH]c1=O`, the kinetic solubility was greater than 51.7 µg/mL.
Next, `CC(=O)Nc1ccc(NC(=O)COC(=O)COc2ccc3ccccc3c2)cc1`: 9.7 µg/mL (≈ 24.7 µM).
On to `CC1(c2ccccc2)CC(C)(C)N2C(=O)Cc3cccc1c32` (stereo unspecified), for which the kinetic solubility came out at 6 µg/mL (≈ 20.6 µM).
Next, `O=C(Nc1cccc2ccccc12)NC(Cc1ccccc1)C(=O)O` (stereo unspecified): greater than 50.2 µg/mL; `CC(=O)NC(=O)c1cnn(-c2ccccc2)c1N`: greater than 36.6 µg/mL.
Next, `Cc1ccc(C)c(S(=O)(=O)c2c(C)cc(C)[nH]c2=O)c1`: 28.9 µg/mL (≈ 99.2 µM); `COc1ccccc1C(C)NC(=O)CCNC(=O)c1ccc(Cl)cc1` (stereo unspecified): 4.5 µg/mL (≈ 12.5 µM); `N#Cc1ccc(OCC(=O)NC2CCCCCC2)cc1`: greater than 40.9 µg/mL.
Next, `CCNC(=S)Nc1ccc(N2CCCCC2)cc1`: greater than 39.5 µg/mL.
